Test results taken from PMC12655744, “From Bench to Bioactivity: An Integrated Medicinal Development Based on Kinetic and Simulation Assessment of Pyrazolone-Oxadiazole Coupled Benzamide as Promising Inhibitors of Diabetes Mellitus” (Pharmaceuticals, 2025).

Assays:
Assay type in all cases: biochemical
[1] = biological target: alpha-amylase; assay: Alpha-amylase activity assay (starch/DNS, 540 nm); details: mean ± SEM; read-out: IC50 = α-amylase µM ± SEM
Protocol: % inhibition = (Abs control − Abs sample) × 100
S.3 Alpha-Amylase Activity Assay:
The inhibitory potential of α-Amylase enzyme was evaluated through the standard methodology. A test tube containing (250 µL) of the compound being tested at various concentrations (50–250 µg/mL), (250 µL) of [1% (w/v)] starch solution, and (250 µL) of (1U/mL) alpha-amylase solution was prepared. Post-incubation at 20ᵒC for 3 min, the en-zymatic process was halted by adding (500 µL) of dinitro salicylic acid (color Reagent).
Following this, (250 µL) of α-amylase was immediately introduced after heating the mix-ture in hot water. The mixture was subsequently subjected to heating at 85 ᵒC for duration of 15 min, followed by a 5-min incubation period at room temperature. (4500 µL) of dis-tilled water was added, resulting in a final volume of (6000 µL). Spectrophotometric anal-ysis at 540 nm was conducted to determine absorbance. A control sample devoid of the […]
equation is used for calculation. […]
(§1) Radius of 12 Å around the Montbretin A binding site was defined for enzyme active site. Accomplishment of docking calculations was achieved using Chem PLP scoring function.
(§2) The geometric parameters and energies were computed by density functional theory at the B3LYP/CEP-631G level of theory, using the […] 98W package of the pro- […]
(§3) grams, on geometries that were optimized at CEP-631G basis set.

[2] = biological target: alpha-glucosidase; assay: Alpha-glucosidase inhibition assay (absorbance 405 nm); details: mean ± SEM; read-out: IC50 = α-glucosidase µM ± SEM
Protocol: 100 µL. The reaction was […] by adding 100 µL of sodium carbonate (200 mM). The absorbance at 405 nm was measured using a microplate reader. This experimental proce-dure was conducted in triplicate, and a control group without the tested compound was included for comparison. […] The percentage […]
inhibition was calculated using the following equation, where “Abs” represents absorb- […]
% inhibition = (Abs control − Abs sample) × 100 […]
as §1, §2, §3

[3] = test system: diabetes enzymes; assay: Enzyme kinetic studies (mode of inhibition); details: Figure 8
Source text: Enzyme kinetics studies provide the most vital information for how drugs work against the disease, such as binding of the inhibitor with its target, and the concentration required to achieve the desired effects. This study explains that the amount of the drug will be affected, slowing down the biological process. The different patterns for slowing down a process are obtained in the form of curves or slopes. This also provides how various forms of inhibitors or derivatives cause the reaction kinetics to slow in unique ways by adding more inhibitors. […] The substitution of unique functional groups in various sites of the phenyl ring might be responsible for its remarkable efficiency. The graphical curves in Figure 8 show the direct competition of the analog against the substrate for the same spot on the enzyme. […]
100 µL. […] The absorbance at 405 nm was measured using a microplate reader. […] The percentage inhibition was calculated using the following equation, where “Abs” represents absorb- […]
The inhibitory potential of α-Amylase enzyme was evaluated through the standard methodology. […]
Following this, (250 µL) of α-amylase was immediately introduced after heating the mix-ture in hot water. […] Spectrophotometric anal-ysis at 540 nm was conducted to determine absorbance. […]

Row | Structure (SMILES) | IC50 [1] | IC50 [2] | Mode of inhibition [3]
1 | O=C1C=C(Nc2nnc(NC(=O)c3c(O)cc(O)cc3O)o2)N=N1 [Compound 3] | 3.2 ± 0.2 µM | 3.6 ± 0.1 µM | competitive inhibitor
2 | O=C1C=C(Nc2nnc(NC(=O)c3ccc(Br)cc3)o2)N=N1 [Compound 9] | 15.3 ± 0.1 µM | 16.1 ± 0.2 µM | 
3 | Cc1ccc(Cl)c(C(=O)Nc2nnc(NC3=CC(=O)N=N3)o2)c1 [Compound 8] | 11.7 ± 0.2 µM | 12.1 ± 0.1 µM | 
